# Reference: patent US20230391772A1, “METHODS AND COMPOSITIONS FOR TARGETED PROTEIN DEGRADATION” (Ranok Therapeutics (Hangzhou) Co. Ltd., priority 2020, published 2023)
# Assays:
# KRAS(G12C) = KRAS(G12C) (Homo sapiens, UniProt P01116, G12C); experiment: KRAS(G12C)/SOS1 homogeneous time-resolved fluorescence (HTRF) assay; design: purchased Cisbio 63ADK000CB16PEG; conditions: absence of GTP, 4° C. for 3 hr, read-out: KRAS (G12C) binding
# In short: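 Three-hour incubation at 4 °C of 3-fold compound dilutions (lowest 1.02 nM) with KRAS(G12C), SOS1 and detection reagents, GTP absent. Disruption of the KRAS(G12C)/SOS1 complex detected by time-resolved fluorescence.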
# [1] = test system: MIA PaCa-2 human pancreatic carcinoma; experiment: MIA PaCa-2 CCK-8 proliferation assay; type: cell-based; conditions: Homo sapiens, MIA PaCa-2, 72 h, MIA PaCa-2 cells
# In short: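 Percent inhibition derived from CCK-8 optical signal, normalised between DMSO-only cells (0%) and cell-free medium containing DMSO as background. Cells: MIA PaCa-2 carrying 2 KRAS(G12C) copies; NCI-H358, NCI-H23 carrying 1 copy apiece. Concentrations spanned 1.02 nM–20 μM in threefold increments.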
# HSP90a protein = target: T1, HSP90a protein (Homo sapiens, UniProt P07900); experiment: HSP90α-binding fluorescent polarization (FP) assay, BODIPY-labeled RNK04010 probe; conditions: FP competition with RNK04010 (BODIPY-labeled), 5 nM, 300 min at 25° C.
# T1 construct: purchased BPS Bioscience 50298
# In short: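 Binding was scored by fluorescence polarization after adding N-terminal HSP90a to wells holding probe and compound, with compound tested from 20 μM to 5.2 nM. Probe-dependent times at 25° C were 120 min for FITC-geldanamycin and 300 min for RNK04010-BODIPY, both at 5 nM final.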
# Sequence of KRAS(G12C) (P01116 1-188 isoform P01116-2 G12C): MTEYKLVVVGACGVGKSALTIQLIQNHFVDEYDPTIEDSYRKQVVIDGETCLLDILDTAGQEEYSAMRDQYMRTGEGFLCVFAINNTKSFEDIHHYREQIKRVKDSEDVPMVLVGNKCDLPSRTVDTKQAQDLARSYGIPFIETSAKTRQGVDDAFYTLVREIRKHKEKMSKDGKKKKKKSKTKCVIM
SMILES,IC50 (KRAS(G12C)) [nM],EC50 [1] [nM],IC50 (HSP90a protein) [nM]
"C=CC(=O)N1CCN(c2nc(OC[C@@H]3CN(C(=O)C4CCN(Cc5ccc(-n6c(C(N)=O)nnc6-c6cc(C(C)C)c(O)cc6O)cc5)CC4)CCN3C)nc3c2CCN(c2cccc4cccc(Cl)c24)C3)C[C@@H]1CC#N [Compound 197, 4-(4-((4-((S)-3-(((4-((S)-4-acryloyl-3-(cyanomethyl)piperazin-1-yl)-7-(8-chloronaphthalen-1-yl)-5,6,7,8-tetrahydropyrido[3,4-d]pyrimidin-2-yl)oxy)methyl)-4-methylpiperazine-1-carbonyl)piperidin-1-yl)methyl)phenyl)-5-(2,4-dihydroxy-5-isopropylphenyl)-4H-1,2,4-triazole-3-carboxamide, trifluoroacetic acid]",> 1000,> 1000,< 100
"C=CC(=O)N1CCN(c2nc(OC[C@@H]3C[C@@H](NC(=O)C4CCN(Cc5ccc(-n6c(O)nnc6-c6cc(C(C)C)c(O)cc6O)cc5)CC4)CN3C)nc3c2CCN(c2cccc4cccc(Cl)c24)C3)C[C@@H]1CC#N [Compound 205, N-((3R,5S)-5-(((4-((S)-4-acryloyl-3-(cyanomethyl)piperazin-1-yl)-7-(8-chloronaphthalen-1-yl)-5,6,7,8-tetrahydropyrido[3,4-d]pyrimidin-2-yl)oxy)methyl)-1-methylpyrrolidin-3-yl)-1-(4-(3-(2,4-dihydroxy-5-isopropylphenyl)-5-hydroxy-4H-1,2,4-triazol-4-yl)benzyl)piperidine-4-carboxamide]",100 to 1000,100 to 1000,< 100
"C=CC(=O)N1CCN(c2nc(OCC3CCC(CNCc4ccc(-n5c(O)nnc5-c5cc(CC)c(O)cc5O)cc4)N3)nc3c2CCN(c2cccc4cccc(Cl)c24)C3)C[C@@H]1CC#N (stereo partly drawn) [Compound 299, 2-((2S)-1-acryloyl-4-(7-(8-chloronaphthalen-1-yl)-2-((5-(((4-(3-(5-ethyl-2,4-dihydroxyphenyl)-5-hydroxy-4H-1,2,4-triazol-4-yl)benzyl)amino)methyl)pyrrolidin-2-yl)methoxy)-5,6,7,8-tetrahydropyrido[3,4-d]pyrimidin-4-yl)piperazin-2-yl)acetonitrile]",100 to 1000,> 1000,< 100
"C=CC(=O)N1CCN(c2nc(OCC3CN(C(=O)C4CCN(Cc5ccc(-n6c(O)nnc6-c6cc(C(C)C)c(O)cc6O)cc5)CC4)C3)nc3c2CCN(c2cccc4cccc(Cl)c24)C3)C[C@@H]1CC#N [Compound 188, (S)-2-(1-acryloyl-4-(7-(8-chloronaphthalen-1-yl)-2-((1-(1-(4-(3-(2,4-dihydroxy-5-isopropylphenyl)-5-hydroxy-4H-1,2,4-triazol-4-yl)benzyl)piperidine-4-carbonyl)azetidin-3-yl)methoxy)-5,6,7,8-tetrahydropyrido[3,4-d]pyrimidin-4-yl)piperazin-2-yl)acetonitrile, trifluoroacetic acid]",> 1000,100 to 1000,< 100
"C=CC(=O)N1CCN(c2nc(OC[C@@H]3C[C@H](C(=O)N4CCN(Cc5ccc(-n6c(C(=O)NCC(F)(F)F)nnc6-c6cc(C(C)C)c(O)cc6O)cc5)CC4)CN3C)nc3c2CCN(c2cccc4cccc(Cl)c24)C3)C[C@@H]1CC#N [Compound 333, 4-[4-({4-[(3S,5S)-5-({[7-(8-chloronaphthalen-1-yl)-4-[(3S)-3-(cyanomethyl)-4-(prop-2-enoyl)piperazin-1-yl]-5H,6H,8H-pyrido[3,4-d]pyrimidin-2-yl]oxy}methyl)-1-methylpyrrolidine-3-carbonyl]piperazin-1-yl}methyl)phenyl]-5-(2,4-dihydroxy-5-isopropylphenyl)-N-(2,2,2-trifluoroethyl)-1,2,4-triazole-3-carboxamide]",100 to 1000,< 100,< 100

# The remaining lines, values ahead:
IC50 (KRAS(G12C)) [nM],EC50 [1] [nM],IC50 (HSP90a protein) [nM],SMILES
< 100,< 100,< 100,"C=CC(=O)N1CCN(c2nc(OC[C@@H]3C[C@H](NC(=O)C4CCN(C(=O)C5CCN(Cc6ccc(-n7c(C(=O)NCC(F)(F)C(F)(F)F)nnc7-c7cc(C(C)C)c(O)cc7O)cc6)CC5)CC4)CN3C)nc3c2CCN(c2cccc4cccc(Cl)c24)C3)C[C@@H]1CC#N [Compound 308, N-[(3S,5S)-5-({[7-(8-chloronaphthalen-1-yl)-4-[(3S)-3-(cyanomethyl)-4-(prop-2-enoyl)piperazin-1-yl]-5H,6H,8H-pyrido[3,4-d]pyrimidin-2-yl]oxy}methyl)-1-methylpyrrolidin-3-yl]-1-[1-({4-[3-(2,4-dihydroxy-5-isopropylphenyl)-5-[(2,2,3,3,3-pentafluoropropyl)carbamoyl]-1,2,4-triazol-4-yl]phenyl}methyl)piperidine-4-carbonyl]piperidine-4-carboxamide]"
< 100,100 to 1000,< 100,"C=CC(=O)N1CCN(c2nc(OC[C@@H]3C[C@H](NC(=O)C4CCN(Cc5ccc(-n6c(O)nnc6-c6cc(C(C)C)c(O)cc6O)cc5)CC4)CN3C)nc3c2CCN(c2cccc4cccc(Cl)c24)C3)C[C@@H]1CC#N [Compound 214, N-((3S,5S)-5-(((4-((S)-4-acryloyl-3-(cyanomethyl)piperazin-1-yl)-7-(8-chloronaphthalen-1-yl)-5,6,7,8-tetrahydropyrido[3,4-d]pyrimidin-2-yl)oxy)methyl)-1-methylpyrrolidin-3-yl)-1-(4-(3-(2,4-dihydroxy-5-isopropylphenyl)-5-hydroxy-4H-1,2,4-triazol-4-yl)benzyl)piperidine-4-carboxamide]"
< 100,< 100,< 100,C=CC(=O)N1CCN(c2nc(OC[C@@H]3C[C@H](N4CCC(C(=O)N5CCN(Cc6ccc(-n7c(C(=O)NCC(F)(F)C(F)(F)F)nnc7-c7cc(C(C)C)c(O)cc7O)cc6)CC5)CC4)CN3C)nc3c2CCN(c2cccc4cccc(Cl)c24)C3)C[C@@H]1CC#N [Compound 323]
100 to 1000,> 1000,< 100,"C=CC(=O)N1CCN(c2nc(OC[C@@H]3C[C@@H](NC(=O)C4CCN(Cc5ccc(-n6c(C(=O)NCCN7CCN(C)CC7)nnc6-c6cc(C(C)C)c(O)cc6O)cc5)CC4)CN3C)nc3c2CCN(c2cccc4cccc(Cl)c24)C3)C[C@@H]1CC#N [Compound 201, N-((3R,5S)-5-(((4-((S)-4-acryloyl-3-(cyanomethyl)piperazin-1-yl)-7-(8-chloronaphthalen-1-yl)-5,6,7,8-tetrahydropyrido[3,4-d]pyrimidin-2-yl)oxy)methyl)-1-methylpyrrolidin-3-yl)-1-(4-(3-(2,4-dihydroxy-5-isopropylphenyl)-5-((2-(4-methylpiperazin-1-yl)ethyl)carbamoyl)-4H-1,2,4-triazol-4-yl)benzyl)piperidine-4-carboxamide]"
< 100,> 1000,< 100,"C=CC(=O)N1CCN(c2nc(OCCN3CCC4(CC3)CCN(C(=O)C3CCN(Cc5ccc(-n6c(O)nnc6-c6cc(C(C)C)c(O)cc6O)cc5)CC3)CC4)nc3c2CCN(c2cccc4cccc(Cl)c24)C3)C[C@@H]1CC#N [Compound 218, (S)-2-(1-acryloyl-4-(7-(8-chloronaphthalen-1-yl)-2-(2-(9-(1-(4-(3-(2,4-dihydroxy-5-isopropylphenyl)-5-hydroxy-4H-1,2,4-triazol-4-yl)benzyl)piperidine-4-carbonyl)-3,9-diazaspiro[5.5]undecan-3-yl)ethoxy)-5,6,7,8-tetrahydropyrido[3,4-d]pyrimidin-4-yl)piperazin-2-yl)acetonitrile]"
< 100,100 to 1000,< 100,"C=CC(=O)N1CCN(c2nc(OC[C@@H]3C[C@H](N4CCC(C(=O)N5CCN(CCNC(=O)c6nnc(-c7cc(C(C)C)c(O)cc7O)n6-c6ccccc6)CC5)CC4)CN3C)nc3c2CCN(c2cccc4cccc(Cl)c24)C3)C[C@@H]1CC#N [Compound 320, N-[2-(4-{1-[(3S,5S)-5-({[7-(8-chloronaphthalen-1-yl)-4-[(3S)-3-(cyanomethyl)-4-(prop-2-enoyl)piperazin-1-yl]-5H,6H,8H-pyrido[3,4-d]pyrimidin-2-yl]oxy}methyl)-1-methylpyrrolidin-3-yl]piperidine-4-carbonyl}piperazin-1-yl)ethyl]-5-(2,4-dihy-droxy-5-isopropylphenyl)-4-phenyl-1,2,4-triazole-3-carboxamide]"
< 100,< 100,< 100,"C=CC(=O)N1CCN(c2nc(OCCN3CCC4(CC3)CCN(C(=O)C3CCN(Cc5ccc(-n6c(C(N)=O)nnc6-c6cc(C(C)C)c(O)cc6O)cc5)CC3)CC4)nc3c2CCN(c2cccc4cccc(Cl)c24)C3)C[C@@H]1CC#N [Compound 210, (S)-4-(4-((4-(9-(2-((4-(4-acryloyl-3-(cyanomethyl)piperazin-1-yl)-7-(8-chloronaphthalen-1-yl)-5,6,7,8-tetrahydropyrido[3,4-d]pyrimidin-2-yl)oxy)ethyl)-3,9-diazaspiro[5.5]undecane-3-carbonyl)piperidin-1-yl)methyl)phenyl)-5-(2,4-dihydroxy-5-isopropylphenyl)-4H-1,2,4-triazole-3-carboxamide]"
